According to US20250186313A1, “SCALP OR HAIR CARE COMPOSITION COMPRISING NANO-CARBON STRUCTURE” (INBCT Co., Ltd., priority 2022, published 2025):

Tests used:
[1] = tested on: artificial skin model KeraSkin; assay: Skin irritation test using artificial skin model KeraSkin (MTT); details: negative control (DPBS) = 100%, nano-carbon structure at 0.1 wt % (1 mg/mL)
Description: The inventors of the present invention evaluated the skin irritation of nano-carbon structures using the artificial skin model KeraSkin.
Specifically, the inventors of the present invention attempted to predict the possibility of skin irritation by measuring the damage to skin cells that appear while penetrating the stratum corneum of KeraSkin after sample treatment. This experiment used MTT, which is a reagent for measuring the cell viability of test materials, and was performed in compliance with the Cosmetic Risk Assessment Guidelines (Ministry of Food and Drug Safety, 2013) and Cosmetic Toxicity Test Animal Alternative Test Method Guideline V: Skin Irritation Test Method Using a Human Skin Model (Ministry of Food and Drug Safety, 2014).

[2] = tested on: artificial skin model KeraSkin; assay: Skin corrosion test using artificial skin model KeraSkin (MTT); type: cell-based, human; details: negative control (deionized water) = 100%, nano-carbon structure at 0.1 wt % (1 mg/mL)
Description: The inventors of the present invention evaluated the skin corrosion properties of nano-carbon structures by using the artificial skin model […] is an artificial skin model that reproduces the skin's epithelium using human-derived skin keratinocytes and is manufactured to be similar to real skin in terms of morphology, microstructure and biomarker expression.

[3] = tested on: artificial skin model KeraSkin; assay: Skin barrier function improvement in SDS-damaged KeraSkin (TEER, TEWL, H&E, immunohistochemistry); type: cell-based, human; details: KeraSkin damaged with 2% SDS, 10 μM retinoic acid or 0.01 wt % NGO
Description: After treating the surface of KeraSkin with SDS (sodium dodecyl sulfate), which is an anionic surfactant, to weaken the skin's natural barrier function, a positive control material (10 μM retinoic acid) and a test material (0.01 wt % NGO) were added to the surface for 48 days. In order to evaluate the degree of improvement in the skin barrier function weakened by SDS by 48-hour application treatment, electrical resistance in epithelial tissue was measured by using the Millipore ERS-2 (Millipore, USA) system, and transepidermal water loss was measured by using the GPSKIN BARRIER PRO-II system, and histopathology was performed on four types of skin barrier markers through immunochemical staining.
The epithelial cell layer has developed tight junctions, which are one of the forms of bonding between cells. These tight junctions form physical and chemical barriers, and the strength and integrity of these barriers can be assessed through the degree of electrical resistance across cell layers, which are called “transepithelial electrical resistance (TEER).” As the barrier function is excellent, the transepithelial electrical resistance value increases.
Transdermal moisture is an essential element for the skin to perform its barrier function normally, and when “transepidermal water loss (TEWL)” increases, the enzyme function required for normal exfoliation is damaged, and it is not possible to normally perform the skin barrier functions. Therefore, transepidermal water loss is used as an important physiological indicator during the damage and recovery process of the skin barrier.

CCCCCCCCCCCCOS(=O)(=O)[O-].[Na+] [5% SDS, sodium dodecyl sulfate]
cell viability [1]: 1.6%

[K+].[OH-] [8N KOH, Potassium hydroxide]
cell viability ([2]; applied for 3 minutes): 1.6%
cell viability ([2]; applied for 1 hour): 0.6%

CC1=C(/C=C/C(C)=C/C=C/C(C)=C/C(=O)O)C(C)(C)CCC1 [retinoic acid]
increase of transepithelial electrical resistance compared to the barrier damaged group [3]: 16.1%
reduction of transepidermal water loss compared to the barrier damaged group [3]: 10.8%
transepithelial electrical resistance (TEER) ([3]; 48-hour application, normal 1726.8±85.3, damaged 69.2±2.1): 347.0±15.7 Ω·cm^2
transepidermal water loss (TEWL) rate compared to the negative control group ([3]; damaged group 133.7±3.2%): 122.9±6.5%
